A short description of data set [1]: Typical water content of the crystalline forms. It counts as physicochemical. As to the method: The water content of a sample can be determined by any suitable means as will be apparent to one of skill in the art. In one embodiment, the water content is determined by Karl-Fischer titration. In one embodiment, the water content is determined by thermogravimetric analysis (TGA). In one embodiment, the water content is determined by gravimetric vapour sorption (GVS). After formation of the crystalline complex according to the invention, the water content may be as low as 1-3% w/w. However, after exposure of the complex to ambient conditions (25° C., 40% RH) the material typically equilibrates (e.g. over a period of 3-7 days) to a water content of up to 5-7% w/w. It has been found, however, that Form 3, once equilibrated to 5-7% w/w water, maintains physical form at 60% RH making it unexpectedly stable over the 0% and 60% humidity range.

The nature of data set [2]: Variable humidity XRPD (VH-XRPD) at 25° C. The conditions noted are these: 25° C. The data set is classed as physicochemical. From the text:
Non-ambient conditions: XRPD diffractograms were collected on a PANalytical Empyrean diffractometer using Cu Kα radiation (45 kV, 40 mA) in reflection geometry. The instrument is fitted with an Anton Paar CHC plus^+ stage fitted with graphite/Kapton windows and equipped with air cooling coupled with a proUmid MHG32 Modular Humidity Generator or a low vacuum pump system using an Edwards RV3 pump. A programmable divergence slit (in automatic mode), with a 10 mm fixed incident beam mask, Ni filter and 0.04 rad Soller slits were used on the incident beam. A PIXcel^3D detector, placed on the diffracted beam, was fitted with a programmable anti-scatter slit (in automatic mode) and 0.04 rad Soller slits. The software used for data collection was X'Pert Data Collector and the data analysed and presented using Diffrac Plus EVA or Highscore Plus. For variable humidity (VH-XRPD) experiments the samples were prepared and analysed in an Anton Paar chromed low-profile sample holder with silicon wafer insert. The measurement parameters are as per the standard screening data collection method (detailed above). For all variable humidity XRPD experiments, a pattern was recorded every hour. […] The Form 1 sample was loaded into the VH chamber, which was set to 40% RH and 25° C. and then the RH was decreased in 10% decrements to 10% RH followed by increasing the RH in 10% increments to 90% RH, while maintaining the temperature at 25° C. […] The sample then quickly transitioned from Form 1 at 80% RH to Form 2 at 90% RH. A variable humidity (VH) XRPD experiment was performed to examine how Form 3 exists under different RH conditions. […] The sample was stable as Form 2 for 8 hours at 80% RH. At 90% RH Form 2 existed for 2 hours before the sample deliquesced in the humidity chamber.

Regarding `C[S+]([O-])CCCCN=C=S.OCC1OC2OC3C(CO)OC(OC4C(CO)OC(OC5C(CO)OC(OC6C(CO)OC(OC7C(CO)OC(OC1C(O)C2O)C(O)C7O)C(O)C6O)C(O)C5O)C(O)C4O)C(O)C3O` (centres unmarked) [Form 2], in data set [1], the Typical water content was 13-20 % w/w. Besides, the “Stability at 25° C. (RH range in which the form is stable)” value in data set [2] was “Above 80% RH”.
